What was measured:
[1] = Half life in Sprague-Dawley rat at 0.1 mg/kg, iv administered as single dose and measured up to 48 hrs; assay type: ADME, organism-based; details: in vivo
[2] = Volume of distribution at steady state in Sprague-Dawley rat at 0.1 mg/kg, iv administered as single dose and measured up to 48 hrs; assay type: ADME, organism-based; details: in vivo, read-out: Vdss
[3] = Unbound clearance in Sprague-Dawley rat at 0.1 mg/kg, iv administered as single dose and measured up to 48 hrs; assay type: ADME, organism-based; details: in vivo
[4] = Clearance in Sprague-Dawley rat at 0.1 mg/kg, iv administered as single dose and measured up to 48 hrs; assay type: ADME, organism-based; details: in vivo
[5] = AUC (0 to t) in Sprague-Dawley rat at 0.1 mg/kg, iv administered as single dose and measured up 48 hrs; assay type: ADME, organism-based; set-up: dose 0.1 mg/kg, time <=48; details: in vivo
Apelin receptor = molecular target: T1, Apelin receptor (Rattus norvegicus, UniProt Q9JHG3); test: Agonist activity at rat APJ receptor stably expressed in CHO cell membranes in presence of [35S]GTPgammaS by scintillation proximity assay; assay type: functional
T1 sequence (Q9JHG3 whole entry): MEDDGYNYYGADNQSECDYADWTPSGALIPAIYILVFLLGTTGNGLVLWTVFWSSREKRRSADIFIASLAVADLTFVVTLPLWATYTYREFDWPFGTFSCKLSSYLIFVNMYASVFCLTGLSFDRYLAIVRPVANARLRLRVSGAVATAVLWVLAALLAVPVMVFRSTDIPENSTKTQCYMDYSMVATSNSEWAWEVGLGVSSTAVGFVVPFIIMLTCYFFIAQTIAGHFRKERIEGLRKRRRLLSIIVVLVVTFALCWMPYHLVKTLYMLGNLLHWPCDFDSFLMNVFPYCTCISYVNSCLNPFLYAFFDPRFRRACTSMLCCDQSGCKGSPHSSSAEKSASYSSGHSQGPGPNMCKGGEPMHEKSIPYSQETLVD

[6] = Stability in rat plasma assessed as compound remaining at 4 hrs; assay type: ADME, cell-free; details: read-out: Stabilty
[7] = Stability in rat liver S9 fraction assessed as compound remaining at 4 hrs; assay type: ADME, subcellular; details: read-out: Stabilty
[8] = Stability in rat Kidney S9 fraction assessed as compound remaining at 4 hrs; assay type: ADME, subcellular; details: read-out: Stabilty
[9] = Plasma protein binding in rat assessed as unbound fraction by LC-MS/MS analysis; assay type: ADME, cell-free
[10] = Half life in Sprague-Dawley rat at 0.5 mg/kg, sc administered as single dose and measured up to 48 hrs; assay type: ADME, organism-based; details: in vivo
[11] = Bioavailability in Sprague-Dawley rat at 0.5 mg/kg, sc administered as single dose and measured up to 48 hrs; assay type: ADME, organism-based; details: in vivo
[12] = Tmax in Sprague-Dawley rat at 0.5 mg/kg, sc administered as single dose and measured up to 48 hrs; assay type: ADME, organism-based; details: in vivo
[13] = AUC (0 to t) in Sprague-Dawley rat at 0.5 mg/kg, sc administered as single dose and measured up to 48 hrs; assay type: ADME, organism-based; set-up: route subcutaneous, dose 0.5 mg/kg, time <=48; details: in vivo
[14] = Unbound Cmax in Sprague-Dawley rat at 0.5 mg/kg, sc administered as single dose and measured up to 48 hrs; assay type: ADME, organism-based; details: in vivo

Row | Compound | half-life [1] [h] | Vd [2] [L/kg] | CL free [3] [mL/min/kg] | clearance [4] [mL/min/kg] | AUC(0-t) at 48 h [5] [µM·h] | EC50 (Apelin receptor) [nM] | remaining at 4 h [6] [%] | remaining at 4 h [7] [%] | remaining at 4 h [8] [%] | fraction unbound [9] | half-life [10] [h] | bioavailability [11] [%] | Tmax [12] [h] | AUC(0-t) at 48 h [13] [µM·h] | fCmax [14] [nM]
1 | CC(=O)N[C@@H](CCCCNC(=N)N)C(=O)N[C@H](CCCNC(=N)N)C(=O)N[C@@H](CCC(N)=O)C(=O)N[C@@H](CCCCNC(=N)N)C(=O)N1CCC[C@H]1C(=O)N[C@H](CCCNC(=N)N)C(=O)N(C)[C@@H](CC(C)C)C(=O)N[C@@H](CO)C(=O)N[C@@H](Cc1c[nH]cn1)C(=O)N[C@@H](CCCCN)C(=O)NCC(=O)N1[C@H](C(=O)N[C@@H](Cc2ccc(I)cc2)C(=O)N2CCC[C@H]2C(=O)N[C@H](Cc2ccc(-c3ccccc3)cc2)C(=O)O)C[C@@H]2CCCC[C@@H]21 | 0.362 | 0.298 | 56.2 | 10.1 | 0.073 | 1.95 | 86 | 41 | 45 | 0.179 | – | – | – | – | –
2 | CCCCCC(=O)N[C@@H](CCC(=O)NCCOCCOCC(=O)NCCOCCOCC(=O)N[C@@H](CCCCNC(=N)N)C(=O)N[C@H](CCCNC(=N)N)C(=O)N[C@@H](CCC(N)=O)C(=O)N[C@@H](CCCCNC(=N)N)C(=O)N1CCC[C@H]1C(=O)N[C@H](CCCNC(=N)N)C(=O)N(C)[C@@H](CC(C)C)C(=O)N[C@@H](CO)C(=O)N[C@@H](Cc1c[nH]cn1)C(=O)N[C@@H](CCCCN)C(=O)NCC(=O)N1[C@H](C(=O)N[C@@H](Cc2ccc(I)cc2)C(=O)N2CCC[C@H]2C(=O)N[C@H](Cc2ccc(-c3ccccc3)cc2)C(=O)O)C[C@@H]2CCCC[C@@H]21)C(=O)O | 2.31 | 0.203 | 483 | 1.64 | 0.372 | 2.31 | – | – | – | 0.0034 | 2.6 | 56 | 4 | 1.05 | 0.37
3 | CCCCCCCCCCCCCCCCC(=O)N[C@@H](CCC(=O)NCCOCCOCC(=O)NCCOCCOCC(=O)N[C@@H](CCCCNC(=N)N)C(=O)N[C@H](CCCNC(=N)N)C(=O)N[C@@H](CCC(N)=O)C(=O)N[C@@H](CCCCNC(=N)N)C(=O)N1CCC[C@H]1C(=O)N[C@H](CCCNC(=N)N)C(=O)N(C)[C@@H](CC(C)C)C(=O)N[C@@H](CO)C(=O)N[C@@H](Cc1c[nH]cn1)C(=O)N[C@@H](CCCCN)C(=O)NCC(=O)N1[C@H](C(=O)N[C@@H](Cc2ccc(I)cc2)C(=O)N2CCC[C@H]2C(=O)N[C@H](Cc2ccc(-c3ccccc3)cc2)C(=O)O)C[C@@H]2CCCC[C@@H]21)C(=O)O | 2.18 | 0.092 | 200 | 1.23 | 0.465 | 7.42 | 79 | 68 | 83 | 0.0064 | 10.3 | 36 | 12 | 0.753 | 0.27
4 | CC(C)C[C@@H](C(=O)N[C@@H](CO)C(=O)N[C@@H](Cc1c[nH]cn1)C(=O)N[C@@H](CCCNC(=N)N)C(=O)NCC(=O)N1[C@H](C(=O)N[C@@H](Cc2ccc(I)cc2)C(=O)N2CCC[C@H]2C(=O)N[C@H](Cc2ccc(-c3ccccc3)cc2)C(=O)O)C[C@@H]2CCCC[C@@H]21)N(C)C(=O)[C@@H](CCCNC(=N)N)NC(=O)[C@@H]1CCCN1C(=O)[C@H](CCCCNC(=N)N)NC(=O)[C@H](CCC(N)=O)NC(=O)[C@@H](CCCNC(=N)N)NC(=O)[C@H](CCCCNC(=N)N)NC(=O)COCCOCCNC(=O)COCCOCCNC(=O)CC[C@H](NC(=O)CCCCCCCCCCCCCCCCC(=O)O)C(=O)O | 19.7 | 0.165 | 85 | 0.11 | 4.45 | 117 | > 90 | 85 | 86 | 0.0013 | > 24 | > 36 | 24 | 9.58 | 0.33
5 | CCCCCCCCCCCCC(=O)N[C@@H](CCC(=O)NCCOCCOCC(=O)NCCOCCOCC(=O)N[C@@H](CCCCNC(=N)N)C(=O)N[C@H](CCCNC(=N)N)C(=O)N[C@@H](CCC(N)=O)C(=O)N[C@@H](CCCCNC(=N)N)C(=O)N1CCC[C@H]1C(=O)N[C@H](CCCNC(=N)N)C(=O)N(C)[C@@H](CC(C)C)C(=O)N[C@@H](CO)C(=O)N[C@@H](Cc1c[nH]cn1)C(=O)N[C@@H](CCCCN)C(=O)NCC(=O)N1[C@H](C(=O)N[C@@H](Cc2ccc(I)cc2)C(=O)N2CCC[C@H]2C(=O)N[C@H](Cc2ccc(-c3ccccc3)cc2)C(=O)O)C[C@@H]2CCCC[C@@H]21)C(=O)O | 3.4 | 0.231 | 1000 | 2.18 | 0.269 | 6.22 | > 90 | 45 | 86 | 0.0022 | 10.2 | 33 | 6 | 0.349 | 0.06
6 | CCCCCCCCCCCCCCC(=O)N[C@@H](CCC(=O)NCCOCCOCC(=O)NCCOCCOCC(=O)N[C@@H](CCCCNC(=N)N)C(=O)N[C@H](CCCNC(=N)N)C(=O)N[C@@H](CCC(N)=O)C(=O)N[C@@H](CCCCNC(=N)N)C(=O)N1CCC[C@H]1C(=O)N[C@H](CCCNC(=N)N)C(=O)N(C)[C@@H](CC(C)C)C(=O)N[C@@H](CO)C(=O)N[C@@H](Cc1c[nH]cn1)C(=O)N[C@@H](CCCCN)C(=O)NCC(=O)N1[C@H](C(=O)N[C@@H](Cc2ccc(I)cc2)C(=O)N2CCC[C@H]2C(=O)N[C@H](Cc2ccc(-c3ccccc3)cc2)C(=O)O)C[C@@H]2CCCC[C@@H]21)C(=O)O | 1.84 | 0.074 | 650 | 1.35 | 0.426 | 4.39 | > 90 | 66 | 84 | 0.0021 | 6.3 | 24 | 8 | 0.404 | 0.07
7 | CC(C)C[C@@H](C(=O)N[C@@H](CO)C(=O)N[C@@H](Cc1c[nH]cn1)C(=O)N[C@@H](CCCCN)C(=O)NCC(=O)N1[C@H](C(=O)N[C@@H](Cc2ccc(I)cc2)C(=O)N2CCC[C@H]2C(=O)N[C@H](Cc2ccc(-c3ccccc3)cc2)C(=O)O)C[C@@H]2CCCC[C@@H]21)N(C)C(=O)[C@@H](CCCNC(=N)N)NC(=O)[C@@H]1CCCN1C(=O)[C@H](CCCCNC(=N)N)NC(=O)[C@H](CCC(N)=O)NC(=O)[C@@H](CCCNC(=N)N)NC(=O)[C@H](CCCCNC(=N)N)NC(=O)COCCOCCNC(=O)COCCOCCNC(=O)CC[C@H](NC(=O)CCCCC(=O)O)C(=O)O | 2.32 | 0.139 | 152 | 0.92 | 0.682 | 4.1 | > 90 | 15 | 76 | 0.0061 | 4.1 | 58 | 4.7 | 1.98 | 1.2

Source: ChEMBL document CHEMBL4665775, “Half-life extension of peptidic APJ agonists by N-terminal lipid conjugation” (Bioorg Med Chem Lett, 2020)
